Experimental findings from PubChem BioAssay (NCI) are described below.

Common to all, as to test: DTP human tumour cell line panel, 48 h
Assay [1] concerns SF-268 CNS.
Assay [2] deals with NCI-H460 lung.
The test system of assay [3] is SNB-75 CNS.
In assay [4] the test system is U251 CNS.
Assay [5] concerns NCI-H226 lung.
Assay [6] concerns HS 578T breast.
Assay [7] deals with HCT-116 colon.
The subject of assay [8] is MALME-3M melanoma.
For assay [9], the system named is SN12C renal.
In assay [10] the test system is SNB-19 CNS.
The test system of assay [11] is HOP-92 NSCLC.
The subject of assay [12] is K-562 leukemia.
In assay [13] the test system is OVCAR-8 ovarian.
The test system of assay [14] is UO-31 renal.
The subject of assay [15] is RXF 393 renal.
The subject of assay [16] is TK-10 renal.
In assay [17] the test system is HL-60(TB) leukemia.
Assay [18] relates to LOX IMVI melanoma.

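Five concentrations, 48 hours, 96-well plates. Definition used: TGI = concentration required for complete inhibition of growth.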 Where only a bound is given, the exact number is not on record here.

Broadly, the TGI is the concentration at which net growth stops. Turning to `CC(C)CC(NP(=O)(O)OC1OC(C)C(O)C(O)C1O)C(=O)NC(Cc1c[nH]c2ccccc12)C(=O)O` (stereo not given), the TGI in [1], in assay [2], in assay [3], in [4], in assay [5] and in [6] was over 100 µM in each case. The TGI in assay [7], in [8], in assay [9], in assay [10], in [11] and in assay [12] was over 100 µM each time. Also, the total growth inhibition concentration (TGI) in [13] and in [14] was over 100 µM each time.
For the compound `CSc1nn(C)cc2nc(C)nc1-2`, the total growth inhibition concentration (TGI) in [1], in assay [2], in assay [3], in assay [4], in assay [5] and in assay [6] was over 100 µM throughout. Further, the TGI in [15], in assay [7], in [9], in assay [10], in [12] and in assay [13] was over 100 µM throughout. In addition, the TGI in assay [16], in assay [14] and in assay [17] was over 100 µM each time.
In the case of `CCCCCCNC(=S)N/N=C(\C)c1ccccn1`, the TGI is 17.8 µM in [1]; 8.81 µM in [2]; 23.9 µM in [3]; 14.2 µM in assay [4]; 6.28 µM in [5]; over 100 µM in assay [6]. Also, the TGI in assay [15] turned out to be 12.5 µM; in [7] it was 15.9 µM; in assay [8], 16.8 µM; in assay [9], 14 µM; in [10], 21 µM; in assay [11], 2.25 µM. Further, the TGI in [18] was 12.3 µM; in assay [13], 10.2 µM; in [16], 42 µM; in assay [14], 10.9 µM.
Turning to `O=C1NC(=S)NC(=O)C1=Cc1ccc(-c2ccccc2)cc1`, the TGI in [1], in assay [2], in assay [4], in [5], in assay [6] and in assay [15] was over 100 µM each time. Also, the concentration for total growth inhibition (TGI) in assay [7], in assay [8], in assay [9], in [10], in assay [11] and in assay [18] was over 100 µM in each case. Also, the total growth inhibition concentration (TGI) in assay [12], in assay [13], in assay [16] and in [14] was over 100 µM throughout.
Turning to `CCOC(=O)[C@@H]1ON2O[C@H](OC3CCCCC3c3ccccc3)C[C@H]3OC(=O)[C@@H]1C32` (stereo not given in full), the total growth inhibition concentration (TGI) in assay [1], in assay [2], in [3], in assay [4], in assay [5] and in [6] was over 100 µM each time. The TGI in assay [15], in [7], in [9], in [11], in assay [18] and in [12] was over 100 µM each time. Besides, the concentration for total growth inhibition (TGI) in [13], in assay [16] and in [14] was over 100 µM throughout.
For `C[C@@H]1CCC2C(C)(C)C(/C=C\C=O)C3(C)OC213` (stereo not given in full), the TGI in [1] is over 100 µM; in assay [2] it was over 100 µM; in [3] it was over 100 µM; in assay [4], over 100 µM; in assay [6], 75.6 µM; in assay [15], over 100 µM. The TGI was 98.2 µM in assay [7]; 72.1 µM in [8]; over 100 µM in assay [10]; 93.9 µM in assay [11]; over 100 µM in [12]; 44.5 µM in assay [13]. In addition, the concentration for total growth inhibition (TGI) in assay [16] and in assay [14] was over 100 µM in each case.
In the case of `CCN(CC)c1ccc(C2Nc3ccc4ccccc4c3C3=C2C(=O)CCC3)cc1` (stereo not given), the TGI is over 100 µM in assay [1]; over 100 µM in assay [2]; 50.5 µM in assay [3]; 33 µM in assay [4]; over 100 µM in assay [5]; 34.4 µM in assay [6]. The total growth inhibition concentration (TGI) in [15] was 59.1 µM; in assay [7], over 100 µM; in assay [8] it was over 100 µM; in [9], over 100 µM; in assay [10] it was over 100 µM; in [12], over 100 µM. The total growth inhibition concentration (TGI) in assay [13] is 38.3 µM; in [14] it was over 100 µM.
Regarding `N/C(=N\N=C\c1cc(I)cc(I)c1O)NO`, the TGI in assay [1] is over 100 µM; in assay [2], over 100 µM; in assay [4] it was over 100 µM; in [5] it was 44.5 µM; in [6], over 100 µM; in assay [15] it was over 100 µM. For the same compound, the TGI in [7] was 76.2 µM; in assay [8] it was 56.7 µM; in [9] it was over 100 µM; in assay [10], over 100 µM; in assay [18] it was over 100 µM; in assay [12], over 100 µM. For the same compound, the concentration for total growth inhibition (TGI) was over 100 µM in assay [13], over 100 µM in assay [16] and 35.4 µM in assay [17].
Turning to `N#Cc1ncn(CCO)c1N`, the TGI in [1], in assay [2], in [3], in assay [4], in assay [5] and in assay [6] was over 100 µM throughout. Besides, the total growth inhibition concentration (TGI) in assay [7], in [8], in assay [9], in [10], in [18] and in [12] was over 100 µM each time. Besides, the concentration for total growth inhibition (TGI) in assay [13], in assay [16], in assay [14] and in [17] was over 100 µM in each case.
